Assay results from patent US20090264384A1, “INDOLE, BENZIMIDAZOLE, AND BENZOLACTAM BORONIC ACID COMPOUNDS, ANALOGS THEREOF AND METHODS OF USE THEREOF” (Nuada, Inc., priority 2004, published 2009).
Read-outs that look alike come from different tables or passages of the source.

How the values were obtained:
[1] = Various In Vitro Cell Biology Assays (Example 41, Tables 23-26); type: cell-based; details: 3×10^−6 M; for inhibition at 3 µM: PBMC, read-out: % Inhibition of Control Values
Procedure: In each experiment, the respective reference compound was tested concurrently with the test compounds in order to assess the assay suitability. It was tested at several concentrations (for IC50 value determination).
The test compounds were assayed at 3×10^−6 M.
Results. The results are expressed as a percent of control values and as a percent inhibition of control values obtained in the presence of the test compounds.
The IC50 values (concentration causing a half-maximal inhibition of control values) and Hill coefficients (nH) were determined by non-linear regression analysis of the inhibition curves using Hill equation curve fitting, a summary of the data is shown in Table 26. The IC50 value for each reference compound is indicated was determined (data not shown) and was within accepted limits of the historic average ±0.5 log units.

[2] = tested on: chronic colitis provoked by trinitrobenzene sulphonic acid (TNBS); assay: Rat model of chronic colitis provoked by TNBS over 14 days, treatment from Day 1; type: in vivo; details: for macroscopic Damage Score / reduction in colon weight / reduction in colonic MPO activity / reduction in colonic TNF-α levels / reduction in colonic lesion area (% of the total area measured): Day 14; for reduction in colon weight / reduction in colonic MPO activity / reduction in colonic TNF-α levels / reduction in colonic lesion area (% of the total area measured) / attenuation of TNBS-induced fall in body weight (% change of body weight at Day −1): vs CMC group; for attenuation of TNBS-induced fall in body weight (% change of body weight at Day −1): over 14 days
From the text: In the chronic model of colitis, assessment of the colonic inflammation is made 14 days or longer, after the intracolonic challenge with TNBS (Boughton-Smith et al, 1988a, 1988b; Wallace et al, 1989; Rachmilewitz et al, 1989; Wallace and Keenan, 1990; Ameho et al, 1987; Sans et al, 1999; Sun et al, 2001; Maric et al, 2003; Moreels et al, 2004; Gonzalez et al, 2004). This model allows treatment with experimental agents to commence following the establishment of the colonic injury, typically 24 hours after the TNBS challenge (Galvez et al, 2000, Villegas, 2003, Gonzalez et al, 2004). The model should therefore identify the ability of the experimental compounds to accelerate the diminution of the inflammatory response and to promote healing of the colonic lesions. This model thus has relevance additional to the acute model, as the clinical correlate is the therapeutic intervention in patients with existing IBD not in remission or with flare-up, to reduce the crisis. This contrasts with the acute TNBS model where the compounds are administered one or two days prior to challenge, the clinical correlate being the use of prophylactic therapy to prevent flare-up and maintain remission in IBD patients.
In this current study, the low intracolonic challenge concentration of TNBS used in the acute studies was also used for the chronic study over a 14 day period. This concentration and timing was based on the findings from pilot studies where a range of concentrations of TNBS and treatment conditions were evaluated over a 14 day period. […].
The methods and protocol used were substantially similar to those in Example 39-40, with some differences described below.
TNBS Challenge. Male Wistar rats (average body weight, 210 g) were randomised into groups before commencement of the study. In all groups, including the non-challenged and non-treated absolute control group, food was withdrawn for 12 h before TNBS administration (i.e. overnight on Day −1), but the rats were allowed free access to drinking water.
On the morning of the day of challenge (Day 0, between 9.00 and 1 1.00 a.m.), the rats were transiently anaesthetised with ether and the TNBS solution (10 mg in 0.25 ml of 50% ethanol) was instilled approximately 6-8 cm into the colon using a soft plastic catheter inserted in the rat rectum. The rats were allowed to recover with free access to food and drinking water. At the end of the experiment, on the morning of Day 14, between 9.00 and 11.00), the colon was dissected, and the distal 8 cm photographed and immediately processed or stored appropriately for subsequent analyses.
The following primary parameters were measured in the study: macroscopic scoring of distal 8 cm of colon; myeloperoxidase levels in segments of distal 8 cm of colon; TNF-α levels in segments of distal 8 cm of colon.
In addition, the weight of the standard colonic segment was assessed as an indirect and non-specific marker of oedema. The body weight of the animals was also determined each evening of the study, starting on Day-1, and also on the morning of Day 14. The data is shown graphically as the % change from the weight on Day-1, prior to challenge.
Treatments. The TNBS challenged groups for study were: (a) Vehicle control 0.5% carboxy methyl cellulose (CMC) p.o., twice daily from Day; (b) CCI-7506 25 mg/kg, p.o., twice daily from Day 1 (50 mg/kg/day total); (c) CCI-7506 50 mg/kg, p.o., twice daily from Day 1 (100 mg/kg/day total); (d) CCI-7507 12.5 mg/kg, p.o., twice daily from Day 1 (25 mg/kg/day total); (e) CCI-7507 25 mg/kg, p.o., twice daily from Day 1(50 mg/kg/day total); […]; (g) Infliximab 3 mg/kg, single slow i.v. injection, on Day 1 and Day7.
The experimental compounds that were administered orally were given twice a day from Day 1, i.e. 24 h following TNBS administration, for the remainder of the 14 day experimental period. Infliximab was administered by slow i.v. injection of Day 1 and on Day 7. […]

[3] = IL-6 secretion (h) (PBMC), LPS 1 μg/ml, 24 h
[4] = 48 h, IL-2 secretion (h) (PBMC), PHA 20 μg/ml, 48 h
[5] = 48 h, IL-4 secretion (h) (PBMC), ConA 20 μg/ml, 48 h
[6] = 24 h, IFN-γ secretion (h) (PBMC), PHA 2 μg/ml, 24 h
[7] = 24 h, IL-1 □ secretion (h) (PBMC), LPS 1 μg/ml, 24 h

## OB(O)CCCCCn1c(-c2cscn2)nc2ccccc21 [CCI-7034]
[1]; [3]
  % Inhibition of Control Values: −89%
[1]; 24 h, IL-8 secretion (h) (PBMC), LPS 1 μg/ml, 24 h
  inhibition at 3 µM: -32%
[1]; 48 h, IL-10 secretion (h) (PBMC), PHA 3 μg/ml, 48 h
  inhibition at 3 µM: 42%
[1]; human, Cell viability (h) (PBMC/24 h), MTT
  cytotoxicity at 24 h: -9%

## N#Cc1ncnc2c1ncn2CCCCCB(O)O [CCI-7048]
[1]; [4]
  inhibition at 3 µM: 23%
[1]; [5]
  inhibition at 3 µM: -45%

## N#Cc1ccc2c(ccn2CCCCCB(O)O)c1 [CCI-7506]
[2]; 50 mg/kg/day p.o. from Day 1
  macroscopic Damage Score: reduced the damage score
  reduction in colon weight: caused a significant reduction in the colon weight
  reduction in colonic MPO activity: caused a significant fall in the elevated MPO activity
  reduction in colonic TNF-α levels: no significant effect on the colonic TNF-α levels
  reduction in colonic lesion area (% of the total area measured): statistically significant for both doses
[2]; 50 mg/kg/day p.o. in divided doses from Day 1
  attenuation of TNBS-induced fall in body weight (% change of body weight at Day −1): significantly different from those in the challenged CMC control group on Days 2 to 10 and also on Days 13 and 14
[2]; 100 mg/kg/day p.o. from Day 1
  macroscopic Damage Score: reduced the damage score
  reduction in colon weight: caused a significant reduction in the colon weight
  reduction in colonic MPO activity: caused a significant fall in the elevated MPO activity
  reduction in colonic TNF-α levels: did achieve significance
  reduction in colonic lesion area (% of the total area measured): statistically significant for both doses
[2]; 100 mg/kg/day p.o. in divided doses from Day 1
  attenuation of TNBS-induced fall in body weight (% change of body weight at Day −1): significantly different from the CMC group on Days 2, 3 and 4

## OB(O)CCCCCn1c(-c2cscn2)nc2ccccc21 [drawing 69]
[1]; [6]
  inhibition at 3 µM: 21%

## N#Cc1ccc2c(ccn2CCCCCB(O)O)c1 [drawing 70]
[1]; [6]
  inhibition at 3 µM: 16%

## OB(O)CCCCn1c(C(F)(F)F)nc2ccccc21 [drawing 71]
[1]; [6]
  inhibition at 3 µM: -6%

## C[C@@H]1CC2C3CCC4=CC(=O)C=CC4(C)C3(F)[C@@H](O)CC2(C)C1(O)C(=O)CO (some centres unmarked) [drawing 72]
[1]; [6]
  inhibition at 3 µM: 68%

## Nc1nc(Cl)c2ncn(CCCCCB(O)O)c2n1 [drawing 73]
[1]; [6]
  inhibition at 3 µM: 56%

## N#Cc1ncnc2c1ncn2CCCCCB(O)O [drawing 74]
[1]; [6]
  inhibition at 3 µM: 14%

## OB(O)CCCCCn1c(-c2cscn2)nc2ccccc21 [drawing 75]
[1]; [7]
  inhibition at 3 µM: -67%

## C[C@@H]1CC2C3CCC4=CC(=O)C=CC4(C)C3(F)[C@@H](O)CC2(C)C1(O)C(=O)CO (some centres unmarked) [drawing 78]
[1]; [7]
  inhibition at 3 µM: -12%

## N#Cc1ncnc2c1ncn2CCCCCB(O)O [drawing 79]
[1]; [7]
  inhibition at 3 µM: -66%

## OB(O)CCCCCn1c(-c2cscn2)nc2ccccc21 [drawing 81]
[1]; [4]
  inhibition at 3 µM: 56%

## OB(O)CCCCn1c(C(F)(F)F)nc2ccccc21 [drawing 82]
[1]; [4]
  inhibition at 3 µM: 72%

## C[C@@H]1CC2C3CCC4=CC(=O)C=CC4(C)C3(F)[C@@H](O)CC2(C)C1(O)C(=O)CO (some centres unmarked) [drawing 83]
[1]; [4]
  inhibition at 3 µM: 18%

## Nc1nc(Cl)c2ncn(CCCCCB(O)O)c2n1 [drawing 84]
[1]; [4]
  inhibition at 3 µM: 78%

## C[C@@H]1CC2C3CCC4=CC(=O)C=CC4(C)C3(F)[C@@H](O)CC2(C)C1(O)C(=O)CO (some centres unmarked) [drawing 88]
[1]; [5]
  inhibition at 3 µM: 118%

## Nc1nc(Cl)c2ncn(CCCCCB(O)O)c2n1 [drawing 89]
[1]; [5]
  inhibition at 3 µM: -30%

## OB(O)CCCCCn1c(-c2cscn2)nc2ccccc21 [drawing 90]
[1]; [3]
  % Inhibition of Control Values: −61%

## OB(O)CCCCn1c(C(F)(F)F)nc2ccccc21 [drawing 91]
[1]; 24 h, IL-6 secretion (h) (PBMC), LPS 1 μg/ml, 24 h
  inhibition at 3 µM: -26%
